The values that follow come from article PMC6968521, “Novel CDKs inhibitors for the treatment of solid tumour by simultaneously regulating the cell cycle and transcription control” (Journal of Enzyme Inhibition and Medicinal Chemistry, 2020).

Experiment [1] has as its target T1, CDK4 (Homo sapiens, UniProt P11802).
T1 construct: purchased Eurofins (KinaseProfiler service)
Description: Kinase inhibition assay (KinaseProfiler, Eurofins), CDK4. The format is biochemical. To be noted: for IC50: ATP at Km, mean of two independent experiments. On the procedure:
(§1) Kinase inhibition profiles were determined using KinaseProfiler services provided by Eurofins, and ATP concentrations used the Km of corresponding kinases.

Experiment [2] has as its target T2, CDK6 (Homo sapiens, UniProt Q00534).
T2 construct: purchased Eurofins (KinaseProfiler service)
Description: Kinase inhibition assay (KinaseProfiler, Eurofins), CDK6. The format is biochemical. To be noted: for IC50: ATP at Km, mean of two independent experiments. On the procedure: as §1

Experiment [3] concerns the target T3, CDK9 (Homo sapiens, UniProt P50750).
T3 construct: purchased Eurofins (KinaseProfiler service)
Description: Kinase inhibition assay (KinaseProfiler, Eurofins), CDK9. The format is biochemical. To be noted: for IC50: ATP at Km, mean of two independent experiments. On the procedure:
as §1

Experiment [4] has as its system H1299 cells. Description: CCK-8 cytotoxicity assay, H1299. It is filed as cell-based. Particulars: Homo sapiens, NCI-H1299; CCK-8, 72 h incubation, three independent experiments; read-out: In vitro cell growth inhibition IC50, H1299. As to the method:
(§2) All the human cancer cell lines were obtained from ATCC. Cells were cultured in RPMI-1640 (BioInd) medium according to the instructions from ATCC, with the medium containing 10% FBS (BioInd), 1% antibiotics (penicillin and streptomycin) at 37 °C in an atmosphere of 5% CO2.
(§3) Cytotoxicity assay were conducted as described previously using a Cell Counting Kit-8 (CCK-8) assay (#CK04, Dojindo, Kumamoto, Japan)[37].
On the technique in general: Tetrazolium dyes change colour on reduction, which living cells bring about.

The test system of experiment [5] is H460 cells. Description: CCK-8 cytotoxicity assay, H460. It is filed as cell-based. Particulars: Homo sapiens, NCI-H460; CCK-8, 72 h incubation, three independent experiments; read-out: In vitro cell growth inhibition IC50, H460. As to the method: as §2, §3
The subject of experiment [6] is T-47D cells. Description: CCK-8 cytotoxicity assay, T-47D. The format is cell-based. Particulars: Homo sapiens, T47D; CCK-8, 72 h incubation, three independent experiments; read-out: In vitro cell growth inhibition IC50, T-47D. As to the method:
as §2, §3

Experiment [7] has as its system 4T1 breast cancer cells. Description: CCK-8 cytotoxicity assay, 4T1. It is filed as cell-based. To be noted: CCK-8, 72 h incubation, three independent experiments; read-out: In vitro cell growth inhibition IC50, 4T1. As to the method: as §2, §3
The test system of experiment [8] is MCF7 cells. Description: CCK-8 cytotoxicity assay, MCF7. The format is cell-based. To be noted: Homo sapiens, CCK-8, 72 h incubation, three independent experiments, read-out: In vitro cell growth inhibition IC50, MCF7. As to the method: as §2, §3
The test system of experiment [9] is A549 cells. Description: CCK-8 cytotoxicity assay, A549. It is filed as cell-based. Particulars: Homo sapiens, CCK-8, 72 h incubation, three independent experiments, read-out: In vitro cell growth inhibition IC50, A549. As to the method:
as §2, §3

Several values for one entry are separate records, joined by “and”; a condition that tells them apart may be missing. Equal values may be shown once.

T1 sequence (P11802 whole entry): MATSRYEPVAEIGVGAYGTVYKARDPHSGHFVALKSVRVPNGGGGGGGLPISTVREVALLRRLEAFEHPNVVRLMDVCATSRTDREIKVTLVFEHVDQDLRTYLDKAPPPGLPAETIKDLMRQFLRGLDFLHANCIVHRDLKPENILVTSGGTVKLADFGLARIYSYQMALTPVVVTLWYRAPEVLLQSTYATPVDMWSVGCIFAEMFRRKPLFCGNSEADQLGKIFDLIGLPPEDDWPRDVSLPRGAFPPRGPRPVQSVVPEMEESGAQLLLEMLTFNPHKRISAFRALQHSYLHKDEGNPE
T1 sequence (P30281 whole entry partner): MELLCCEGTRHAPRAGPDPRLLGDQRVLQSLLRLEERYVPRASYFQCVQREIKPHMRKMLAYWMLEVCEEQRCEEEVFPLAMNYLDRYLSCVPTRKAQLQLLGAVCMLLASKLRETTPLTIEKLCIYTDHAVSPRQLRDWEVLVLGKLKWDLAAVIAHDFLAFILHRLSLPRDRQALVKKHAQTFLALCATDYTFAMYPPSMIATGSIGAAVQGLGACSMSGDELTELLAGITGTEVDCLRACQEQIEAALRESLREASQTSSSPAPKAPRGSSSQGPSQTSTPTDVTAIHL
T3 sequence (P50750 whole entry): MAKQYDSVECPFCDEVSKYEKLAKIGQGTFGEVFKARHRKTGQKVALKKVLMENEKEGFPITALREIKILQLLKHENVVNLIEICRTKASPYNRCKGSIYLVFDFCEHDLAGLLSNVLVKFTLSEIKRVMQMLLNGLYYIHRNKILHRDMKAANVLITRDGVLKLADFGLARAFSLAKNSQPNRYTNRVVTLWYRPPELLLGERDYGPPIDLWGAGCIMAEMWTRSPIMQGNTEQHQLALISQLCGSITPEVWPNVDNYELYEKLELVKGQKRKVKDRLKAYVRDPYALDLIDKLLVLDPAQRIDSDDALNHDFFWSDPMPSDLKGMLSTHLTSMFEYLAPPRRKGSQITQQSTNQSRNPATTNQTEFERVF
T3 sequence (O60563 whole entry partner): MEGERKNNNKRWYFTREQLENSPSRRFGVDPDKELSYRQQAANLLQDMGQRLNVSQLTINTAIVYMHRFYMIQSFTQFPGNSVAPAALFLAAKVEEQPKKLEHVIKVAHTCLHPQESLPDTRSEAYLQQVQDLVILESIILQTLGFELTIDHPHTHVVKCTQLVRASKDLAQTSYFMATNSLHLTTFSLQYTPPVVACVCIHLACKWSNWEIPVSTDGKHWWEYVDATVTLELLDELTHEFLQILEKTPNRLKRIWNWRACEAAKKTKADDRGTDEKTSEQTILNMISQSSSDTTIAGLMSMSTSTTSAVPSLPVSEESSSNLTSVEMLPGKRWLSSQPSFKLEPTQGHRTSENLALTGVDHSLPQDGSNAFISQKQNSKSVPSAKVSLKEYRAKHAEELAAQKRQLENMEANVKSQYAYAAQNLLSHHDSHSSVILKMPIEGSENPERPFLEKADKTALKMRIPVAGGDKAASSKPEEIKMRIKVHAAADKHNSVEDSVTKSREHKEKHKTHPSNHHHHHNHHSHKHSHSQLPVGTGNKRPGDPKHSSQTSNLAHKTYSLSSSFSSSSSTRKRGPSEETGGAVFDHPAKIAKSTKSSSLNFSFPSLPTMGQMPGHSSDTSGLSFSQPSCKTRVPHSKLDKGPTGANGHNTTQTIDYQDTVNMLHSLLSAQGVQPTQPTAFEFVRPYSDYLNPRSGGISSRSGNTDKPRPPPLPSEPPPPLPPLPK
T2 sequence (Q00534 whole entry): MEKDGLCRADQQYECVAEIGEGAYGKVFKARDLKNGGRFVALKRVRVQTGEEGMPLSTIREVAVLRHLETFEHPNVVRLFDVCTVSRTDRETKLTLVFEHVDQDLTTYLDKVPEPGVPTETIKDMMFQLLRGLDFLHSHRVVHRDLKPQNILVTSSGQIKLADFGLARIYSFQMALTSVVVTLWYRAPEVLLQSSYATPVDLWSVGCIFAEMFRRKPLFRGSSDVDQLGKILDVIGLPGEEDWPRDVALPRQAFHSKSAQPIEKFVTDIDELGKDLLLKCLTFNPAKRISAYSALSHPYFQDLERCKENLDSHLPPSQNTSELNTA
T2 sequence (P30281 whole entry partner): as the sequence (P30281 whole entry partner) above

`CN(C)C(=O)c1cc2cnc(Nc3ccc(CSCCCCN=C=S)cc3)nc2n1C1CCCC1` [X15]: the inhibition (in general, the change of the read-out against control, counted positive when it falls) at 1 µM amounted to 83 ± 0.8% in experiment [1], 76 ± 0.8% in experiment [2] and 96% in experiment [3]. The IC50 (usually the concentration needed to halve the response being measured) in experiment [3] was 29 ± 1.4 nM.

On to `CN(C)C(=O)c1cc2cnc(Nc3ccc(S(=O)(=O)CCCCCN=C=S)cc3)nc2n1C1CCCC1` [X11], for which the inhibition at 1 µM in experiment [1] stood at 89 ± 0.4%; in experiment [2], 82 ± 0.8%; in experiment [3] it was 98 ± 0.4%. Also, the IC50 in experiment [3] came to 8 ± 0.8 nM.

Consider `CN(C)C(=O)c1cc2cnc(Nc3ccc(S(=O)(=O)CCCCCN=C=S)cc3C(F)(F)F)nc2n1C1CCCC1` [X6], for which the inhibition at 1 µM worked out at 35 ± 2.4% in experiment [1], 14 ± 1.2% in [2] and 75 ± 0.4% in [3].

With `CN(C)C(=O)c1cc2cnc(Nc3ccc(CS(=O)(=O)CCCN=C=S)cc3)nc2n1C1CCCC1` [X19], the IC50 in experiment [4] was determined as 600 ± 40 nM; in [5], 1450 ± 100 nM; in [1] it was 17 ± 0.7 nM; in experiment [6], 720 ± 30 nM; in experiment [7], 690 ± 140 nM; in [8] it was 160 ± 60 nM. In addition, the 50% inhibitory concentration (IC50) in experiment [2] was determined as 55 ± 1.6 nM; in [3], 6 ± 0.4 nM; in experiment [9], 1460 ± 280 nM. The inhibition at 1 µM in experiment [1] stood at 98%; in [2], 94 ± 0.8%; in [3], 98 ± 0.4%.

In the case of `CN(C)C(=O)c1cc2cnc(Nc3ccc(CSCCCCCN=C=S)cc3)nc2n1C1CCCC1` [X16], the inhibition at 1 µM in experiment [1] was 71 ± 0.8%; in [2] it was 73%; in experiment [3] it was 94 ± 0.4%. This compound gave an IC50 in [3] of 34 ± 1.4 nM.

With `COc1cc(SCCCCCN=C=S)ccc1Nc1ncc2cc(C(=O)N(C)C)n(C3CCCC3)c2n1` [X3], the inhibition at 1 µM in experiment [1] came out at 8 ± 2.1%; in experiment [2] it was 5 ± 0.8%; in [3], 33 ± 2.5%.

Take `CN(C)C(=O)c1cc2cnc(Nc3ccc(CS(=O)(=O)CCCCCN=C=S)cc3)nc2n1C1CCCC1` [X21]: the inhibition at 1 µM in experiment [1] is 98 ± 0.4%; in [2] it was 93%; in [3] it was 98%. Besides, the results for the IC50 in [1], in [2] and in experiment [3] were 24 ± 0.9 nM, 78 ± 13.4 nM and 7 ± 0.6 nM, respectively.

`CN(C)C(=O)c1cc2cnc(Nc3ccc(CSCCCN=C=S)cc3)nc2n1C1CCCC1` [X14]: the inhibition at 1 µM amounted to 95% in [1], 86 ± 1.2% in [2] and 97 ± 0.4% in [3]. The IC50 in [1] amounted to 79 ± 1.3 nM; in experiment [3], 16 ± 2.8 nM.

As to `CN(C)C(=O)c1cc2cnc(Nc3ccc(SCCCCCN=C=S)cc3C(F)(F)F)nc2n1C1CCCC1` [X4], the figures for the inhibition at 1 µM in [1], in [2] and in experiment [3] were 9 ± 1.6%, 8 ± 3.3% and 41 ± 0.8%, respectively.

Regarding `CN(C)C(=O)c1cc2cnc(Nc3ccc(CS(=O)(=O)CCCCN=C=S)cc3)nc2n1C1CCCC1` [X20], the IC50 turned out to be 600 ± 240 nM in [4]; 1500 ± 390 nM in experiment [5]; 21 ± 1.4 nM in experiment [1]; 120 ± 10 nM in experiment [6]; 260 ± 190 nM in [7]; 120 ± 70 nM in [8]. Also, the IC50 worked out at 42 ± 5.4 nM in experiment [2], 7 ± 1 nM in experiment [3] and 380 ± 20 nM in experiment [9]. The figures for the inhibition at 1 µM in experiment [1], in experiment [2] and in [3] were 99 ± 0.4%, 94 ± 0.4% and 98 ± 0.4%, respectively.

Regarding `CN(C)C(=O)c1cc2cnc(Nc3ccc(CSCCCCCCCN=C=S)cc3)nc2n1C1CCCC1` [X18], the results for the inhibition at 1 µM in experiment [1], in [2] and in experiment [3] were 82 ± 1.2%, 52 ± 0.8% and 95 ± 0.4%, respectively. This compound also yielded an IC50 in experiment [3] of 42 ± 1.6 nM.

In the case of `CN(C)C(=O)c1cc2cnc(Nc3ccc(S(=O)(=O)CCCCCCN=C=S)cc3)nc2n1C1CCCC1` [X12], the IC50 was 1310 ± 60 nM in [4]; 2790 ± 320 nM in experiment [5]; 160 ± 20 nM in experiment [6]; 460 ± 70 nM in experiment [7]; 570 ± 240 nM in experiment [8]; 13 ± 1.8 nM in experiment [3]. In [9], the IC50 is 1570 ± 70 nM. Further, the results for the inhibition at 1 µM in [1], in [2] and in experiment [3] were 83%, 75 ± 0.4% and 97 ± 0.4%, respectively.

As to `CN(C)C(=O)c1cc2cnc(Nc3ccc([S+]([O-])CCCCCN=C=S)cc3C(F)(F)F)nc2n1C1CCCC1` (stereo not drawn) [X5], the inhibition at 1 µM in experiment [1] came out at 91 ± 0.8%; in experiment [2], 48 ± 1.2%; in experiment [3], 97 ± 0.4%. Moreover, the half-inhibitory concentration (IC50) in [1] stood at 331 ± 33.3 nM; in [3], 34 ± 5.3 nM.

On to `CN(C)C(=O)c1cc2cnc(Nc3ccc(CS(=O)(=O)CCCCCCCN=C=S)cc3)nc2n1C1CCCC1` [X23], for which the inhibition at 1 µM in experiment [1] worked out at 95 ± 0.5%; in experiment [2], 77 ± 1.6%; in experiment [3], 97%. The IC50 in [1] was 75 ± 10 nM; in [3], 14 ± 0.9 nM.

On to `CN(C)C(=O)c1cc2cnc(Nc3ccc(SCCCCCN=C=S)cc3)nc2n1C1CCCC1` [X1], for which the inhibition at 1 µM in [1] was determined as 35 ± 0.5%; in experiment [2], 63 ± 1.2%; in experiment [3] it was 76%.

As to `CN(C)C(=O)c1cc2cnc(Nc3ccc(CSCCCCCCN=C=S)cc3)nc2n1C1CCCC1` [X17], the inhibition at 1 µM turned out to be 61 ± 2.1% in experiment [1], 52 ± 0.4% in [2] and 94 ± 1.6% in experiment [3]. Moreover, half-maximal inhibition in [3] (IC50) required 55 ± 2.2 nM.

For the compound `CN(C)C(=O)c1cc2cnc(Nc3ccc(SCCCN=C=S)cc3)nc2n1C1CCCC1` [X8], the IC50 in experiment [4] came out at 3790 ± 70 nM; in [5], 3220 ± 220 nM; in [6] it was 410 ± 100 nM; in experiment [7], 1460 ± 340 nM; in experiment [8], 1330 ± 150 nM; in experiment [3], 16 nM. In addition, the IC50 in experiment [9] was determined as 3070 ± 110 nM. For the same compound, the inhibition at 1 µM is 70 ± 2.4% in experiment [1], 64 ± 0.8% in experiment [2] and 97 ± 0.4% in [3].

Regarding `CN(C)C(=O)c1cc2cnc(Nc3ccc(S(=O)(=O)CCCCCCCN=C=S)cc3)nc2n1C1CCCC1` [X13], the inhibition at 1 µM in experiment [1] worked out at 74%; in experiment [2], 68 ± 0.4%; in [3], 96 ± 0.4%. Besides, in [3], the IC50 is 24 ± 3.1 nM.

In the case of `CN(C)C(=O)c1cc2cnc(Nc3ccc(S(=O)(=O)CCCCN=C=S)cc3)nc2n1C1CCCC1` [X10], the inhibition at 1 µM in experiment [1] turned out to be 90 ± 0.8%; in experiment [2], 88 ± 0.8%; in experiment [3] it was 98 ± 0.4%. Moreover, the values for the IC50 in experiment [1] and in experiment [3] were 90 ± 10.5 nM and 7 ± 0.8 nM, respectively.

As to `CN(C)C(=O)c1cc2cnc(Nc3ccc([S+]([O-])CCCCCN=C=S)cc3)nc2n1C1CCCC1` (stereo not drawn) [X7], the concentration for half-maximal inhibition (IC50) in experiment [4] is 1150 ± 100 nM; in experiment [5], 920 ± 150 nM; in experiment [1], 7 nM and 26 nM; in experiment [6], 100 ± 20 nM; in [7] it was 410 ± 100 nM; in experiment [8], 230 ± 40 nM. In addition, the IC50 in experiment [3] was 26 nM and 7 nM; in experiment [9], 670 ± 30 nM. The inhibition at 1 µM in experiment [1] came to 99%; in experiment [2] it was 87 ± 1.6%; in [3], 99%.

Regarding `Cc1cc(SCCCCCN=C=S)ccc1Nc1ncc2cc(C(=O)N(C)C)n(C3CCCC3)c2n1` [X2], the inhibition at 1 µM stood at 29 ± 2.1% in experiment [1], 17 ± 1.2% in experiment [2] and 80% in experiment [3].

With `CN(C)C(=O)c1cc2cnc(Nc3ccc(S(=O)(=O)CCCN=C=S)cc3)nc2n1C1CCCC1` [X9], the inhibition at 1 µM in [1] was 94 ± 1.6%; in experiment [2] it was 92 ± 1.2%; in experiment [3] it was 97%. For the same compound, the IC50 is 43 ± 2.6 nM in experiment [1], 101 ± 4.7 nM in experiment [2] and 4 ± 0.4 nM in experiment [3].
